According to patent US9636299B2, “Method for treating diabetic retinopathy” (XAVIER UNIVERSITY OF LOUISIANA, priority 2012, dated 2017):
Residues, ends and D or L forms follow the SMILES beside them.

Columns and labels:
VEGF = experiment: Streptozotocin-induced diabetic mice, retinal VEGF protein by Western blot; assay type: in vivo, mouse; settings: 14 days
Protocol: Streptozotocin (STZ) induced diabetes. Twelve week old C57Bl/6 mice were used for this study. Mice were induced to have diabetes by intraperitoneal injection of 170 μg/g of streptozotocin (Sigma Aldrich, St. Louis, Mo.). Controls were injected with a vehicle (0.01M sodium citrate buffer). On the third day after STZ treatment, mice tail veins were bled to test the hyperglycemic status using blood sugar detection kit (Lifescan; Johnson & Johnson, Milpitas, Calif.). Mice with blood sugar levels of >300 mg/dL on the third day after STZ treatment were considered diabetic. Eye drop treatment containing 1% apoEdp or vehicle PBS was continued 4 times a day for 14 consecutive days. Intra-peritoneal (i/p) injection containing 40 mg/kg of apoEdp or vehicle control PBS was administered once daily for 14 consecutive days. On the 15th day post-treatment, mice were euthanized, their eyes enucleated, and the retinas dissected out to use for mRNA or Western blot analysis.
Upregulation of VEGF expression is reported as one of the reasons for the loss of tight junction proteins in diabetic mice (20).
Increased vascular permeability in diabetic retinopathy (DR) is reported to result in a concomitant increase of VEGF. The VEGF pathway is known to play a role in breakdown of the BRB through a mechanism involving the down regulation of tight junction proteins in the retinal microvasculature (20).

heparanase = experiment: Laser photocoagulation-induced retinal injury in mice, heparanase real-time RT-PCR; assay type: in vivo, mouse; settings: apoEdp 40 mg/kg intraperitoneally once each day for 7 days, vs mice without apoEdp
Protocol: Laser Photocoagulation-Induced Retinopathy. Female mice (C57BL/6J), aged 6-8 weeks, were used for retinal laser photocoagulation studies. The mice were treated and maintained in accordance with the ARVO Statement for the Use of Animals in Ophthalmic and Vision Research. The mice were anesthetized by intraperitoneal injection of a mixture of ketamine (100 mg/kg; Warner Lambert Co., Morris Plains, N.J.) and xylazine (10 mg/kg; Bayer AG, Leverkusen, Germany), and the pupils dilated with 2.5% tropicamide (Alcon, Fort Worth, Tex.). […]
RNA Extraction, Reverse Transcription, & PCR. […] Gene expression was measured at RNA level per 100 ng of total RNA using one-step RT-PCR kit (Bio-Rad, Hercules, Calif.). Four host genes (mouse GAPDH, mouse MMP2, mouse HPSE-1 (heparanase-1), and mouse MMP9) were analyzed to confirm relative quantitative expression levels. The primer pairs used were specifically designed and synthesized by Qiagen GmbH, Hilden, Germany (Quantitech Primer assay kit, for each host gene, catalog numbers QT01658692, QT00088396, QT00009555, and QT00040040, respectively). One-step Real-time quantitative RT-PCR reactions were performed in a 50-μL volume containing a solution of 1× supermix (iQ SYBR Green; Bio-Rad, Hercules, Calif.), 1 μM mix of forward and reverse primers, and 5 μL total RNA. […] Relative quantitative expression levels were determined for each gene. […]

## CC(=O)N[C@@H](CC(C)C)C(=O)N[C@@H](CCCNC(=N)N)C(=O)N[C@@H](CCCCN)C(=O)N[C@@H](CC(C)C)C(=O)N[C@@H](CCCNC(=N)N)C(=O)N[C@@H](CCCCN)C(=O)N[C@@H](CCCNC(=N)N)C(=O)N[C@@H](CC(C)C)C(=O)N[C@@H](CC(C)C)C(=O)N[C@@H](CC(C)C)C(=O)N[C@@H](CCCNC(=N)N)C(=O)N[C@@H](CCCCN)C(=O)N[C@@H](CC(C)C)C(=O)N[C@@H](CCCNC(=N)N)C(=O)N[C@@H](CCCCN)C(=O)N[C@@H](CCCNC(=N)N)C(=O)N[C@@H](CC(C)C)C(=O)N[C@@H](CC(C)C)C(N)=O [apoEdp, Ac-LRKLRKRLLLRKLRKRLL-amide] (Ac-LRKLRKRLLLRKLRKRLL-NH2)
VEGF; eye drop treatment, vs untreated diabetic
  VEGF expression of retina: not significantly different from untreated diabetic mice
VEGF; i/p injection of apoEdp, vs diabetic untreated
  VEGF expression of retina: significantly reduced VEGF expression
heparanase
  Expression of heparanase in retina: dramatically reduced
